Measured values: PubChem BioAssay (NCI)
Values joined by “and” are separate entries in the source; they are usually repeats but may differ in a detail not shown here. Identical values can stand only once.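 Each compound was tested at five concentrations against cells in 96-well plates for 48 hours. At the GI50, growth is halved. TGI: concentration producing complete growth inhibition.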

system: A498 renal; test: NCI anticancer screen, dose series, 48 h

Row | SMILES | GI50 | TGI
1 | COC(=O)[C@]12CC[C@@H](C)[C@H](C)[C@@H]1C1=CC[C@@H]3[C@@]4(C)C/C(=N\O)[C@H](O)[C@@]5(C)COC(=C45)C[C@@]3(C)[C@]1(C)CC2 | 9.94 µM | 21.9 µM
2 | Oc1c(CN2CCC(N3CCCCC3)CC2)cc(Cc2cc(CN3CCC(N4CCCCC4)CC3)c(O)c3ncccc23)c2cccnc12 | 5.02 µM | 18 µM
3 | Cn1c2ccccc2c2c(-c3ccccc3)[n+]3ccncc3nc21 | > 100 µM | > 100 µM
4 | C[C@@H]1OC(O)[C@@H](F)[C@H](O)[C@@H]1O (some centres not stated) | > 100 µM | > 100 µM
5 | COc1ccc(-c2cnnc3c(-c4cccc(C(F)(F)F)c4)cnn23)cc1 | 3.52 µM | 62.6 µM
6 | C=CCCCCCCCCC(=O)[O][Sn]([CH2]CCC)([CH2]CCC)[CH2]CCC | 0.14 µM | 0.276 µM
7 | CC/C(=C(/c1ccc(O)cc1)c1ccc(OCCNC)cc1)c1ccccc1 | 1.64 µM | 6.55 µM
8 | O=C(/C(Br)=C/c1ccccc1)c1ccccc1 | 15.5 µM | 30 µM
9 | O=C1CCCCN1CCCCC#Cc1ccccc1C#Cc1ccc([N+](=O)[O-])cc1 | 4.01 µM | 25 µM
10 | CCOc1cc2c(Cl)ncnc2c(OCC)c1OCC | 6.48 µM | 19.1 µM
11 | Oc1ccc2ccccc2c1N=Nc1nccs1 | 10.5 µM | > 96.7 µM
12 | Cn1c(=O)c2[nH]c(SCc3ccccn3)nc2n(C)c1=S | – | 55.2 µM
13 | COc1cc2c(c(O)c1Br)C(=O)c1c(O)cc(C[C@H](C)O)cc1[C@H]2[C@H]1c2cc(C[C@H](C)O)cc(O)c2C(=O)c2c1cc(OC)c(Br)c2O | 4.35 µM and 22.5 µM | 35.1 µM and 58.5 µM
14 | COc1ccc(-c2cc(=O)c3ccc(O)cc3o2)cc1OC | – | > 100 µM
15 | CC[C@]1(O)C[C@@H]2CN(CCc3c([nH]c4ccccc34)[C@@](C(=O)OC)(c3cc4c(cc3OC)N(C)[C@H]3[C@@](O)(C(=O)OC)[C@H](OC(C)=O)[C@]5(CC)C=CCN6CC[C@]43[C@@H]65)C2)C1 | < 0.01 µM | < 0.01 µM
16 | N#CSc1c[nH]c2cccc(/C=C/C(=O)/C=C(/C=C/c3cccc4[nH]cc(SC#N)c34)OB(F)F)c12 | 2.01 µM | 6.97 µM
17 | COc1cc([N+](=O)[O-])cc2c3c(n(C)c12)[C@@]1(C)CCC2c4ccc(OCc5ccccc5)cc4CCC2C1C3 (some centres not stated) | 35.6 µM | > 100 µM
18 | C=CC(=O)N1CC2(CCN(c3nc(OC4CCN(CCCOC)CC4)nc4c(OCC(F)(F)F)c(-c5c(C)ccc6[nH]ncc56)c(C5CC5)cc34)CC2)C1 | 15.4 µM | 29.5 µM
19 | FC(F)(F)c1cccc(Nc2nccc(-c3cnn4nc(-c5ccccc5)ccc34)n2)c1 | > 14 µM | > 25 µM
20 | CC[C@@H]1C(=O)N(C)c2cnc(Nc3ccc(C(=O)NC4CCN(C)CC4)cc3OC)nc2N1C1CCCC1 | 0.0245 µM and 0.0246 µM | 0.146 µM and 0.368 µM
21 | C=C1C(=O)O[C@H]2[C@H]1CC/C(COC(=O)c1ccc3ccccc3c1)=C\CC[C@@]1(C)O[C@@H]21 | 1.88 µM | 4.5 µM
22 | Nc1nc(Cl)c2ncn(Cc3ccc(C45CC6CC(CC(C6)C4)C5)c(O)c3)c2n1 | 8.15 µM | 24.4 µM
23 | O=C1Nc2c(C(F)(F)F)cccc2[C@]1(c1ccc(O)cc1)c1ccc(OC(F)(F)F)cc1 | 14.7 µM | 30 µM
24 | COc1ccc(/C=C/c2nccc3ccccc23)cc1OC | – | > 10 µM

system: HS 578T breast; test: NCI anticancer screen, dose series, 48 h

Row | SMILES | GI50 | TGI
25 | COC(=O)[C@]12CC[C@@H](C)[C@H](C)[C@@H]1C1=CC[C@@H]3[C@@]4(C)C/C(=N\O)[C@H](O)[C@@]5(C)COC(=C45)C[C@@]3(C)[C@]1(C)CC2 | 11.4 µM | 32.5 µM
26 | Oc1c(CN2CCC(N3CCCCC3)CC2)cc(Cc2cc(CN3CCC(N4CCCCC4)CC3)c(O)c3ncccc23)c2cccnc12 | 4.67 µM | 28.7 µM
27 | Cn1c2ccccc2c2c(-c3ccccc3)[n+]3ccncc3nc21 | 87.5 µM | > 100 µM
28 | C[C@@H]1OC(O)[C@@H](F)[C@H](O)[C@@H]1O (some centres not stated) | > 100 µM | > 100 µM
29 | COc1ccc(-c2cnnc3c(-c4cccc(C(F)(F)F)c4)cnn23)cc1 | 4.11 µM | > 100 µM
30 | NC(=O)c1ccc(I)c(N)c1 | > 100 µM | > 100 µM
31 | C=CCCCCCCCCC(=O)[O][Sn]([CH2]CCC)([CH2]CCC)[CH2]CCC | 0.166 µM | 0.493 µM
32 | CC/C(=C(/c1ccc(O)cc1)c1ccc(OCCNC)cc1)c1ccccc1 | 1.87 µM | 5.16 µM
33 | O=C(/C(Br)=C/c1ccccc1)c1ccccc1 | 8.12 µM | 52.4 µM
34 | O=C1CCCCN1CCCCC#Cc1ccccc1C#Cc1ccc([N+](=O)[O-])cc1 | 5.05 µM | 23.5 µM
35 | CCOc1cc2c(Cl)ncnc2c(OCC)c1OCC | 2.07 µM | 5.45 µM
36 | Oc1ccc2ccccc2c1N=Nc1nccs1 | 4.55 µM | 45.2 µM
37 | Cn1c(=O)c2[nH]c(SCc3ccccn3)nc2n(C)c1=S | – | > 100 µM
38 | COc1cc2c(c(O)c1Br)C(=O)c1c(O)cc(C[C@H](C)O)cc1[C@H]2[C@H]1c2cc(C[C@H](C)O)cc(O)c2C(=O)c2c1cc(OC)c(Br)c2O | 2.99 µM and 4.1 µM | 67.5 µM and 65.9 µM
39 | COc1ccc(-c2cc(=O)c3ccc(O)cc3o2)cc1OC | – | > 100 µM
40 | CC[C@]1(O)C[C@@H]2CN(CCc3c([nH]c4ccccc34)[C@@](C(=O)OC)(c3cc4c(cc3OC)N(C)[C@H]3[C@@](O)(C(=O)OC)[C@H](OC(C)=O)[C@]5(CC)C=CCN6CC[C@]43[C@@H]65)C2)C1 | < 0.01 µM | 10.8 µM
41 | N#CSc1c[nH]c2cccc(/C=C/C(=O)/C=C(/C=C/c3cccc4[nH]cc(SC#N)c34)OB(F)F)c12 | 2.17 µM | > 58.6 µM
42 | COc1cc([N+](=O)[O-])cc2c3c(n(C)c12)[C@@]1(C)CCC2c4ccc(OCc5ccccc5)cc4CCC2C1C3 (some centres not stated) | > 100 µM | > 100 µM
43 | C=CC(=O)N1CC2(CCN(c3nc(OC4CCN(CCCOC)CC4)nc4c(OCC(F)(F)F)c(-c5c(C)ccc6[nH]ncc56)c(C5CC5)cc34)CC2)C1 | 2.91 µM | 13.3 µM
44 | FC(F)(F)c1cccc(Nc2nccc(-c3cnn4nc(-c5ccccc5)ccc34)n2)c1 | 7.38 µM | > 20.3 µM
45 | CC[C@@H]1C(=O)N(C)c2cnc(Nc3ccc(C(=O)NC4CCN(C)CC4)cc3OC)nc2N1C1CCCC1 | 0.00842 µM and 0.0188 µM | 0.394 µM and 0.475 µM
46 | C=C1C(=O)O[C@H]2[C@H]1CC/C(COC(=O)c1ccc3ccccc3c1)=C\CC[C@@]1(C)O[C@@H]21 | 1.53 µM | 4.51 µM
47 | Nc1nc(Cl)c2ncn(Cc3ccc(C45CC6CC(CC(C6)C4)C5)c(O)c3)c2n1 | 2.29 µM | 12.1 µM
48 | CCC(C)c1c(Cl)nc(Cl)nc1Cl (configuration not stated) | – | > 100 µM
49 | O=C1Nc2c(C(F)(F)F)cccc2[C@]1(c1ccc(O)cc1)c1ccc(OC(F)(F)F)cc1 | 1.44 µM | 5.89 µM
50 | COc1ccc(/C=C/c2nccc3ccccc23)cc1OC | – | > 10 µM

system: LOX IMVI melanoma; test: NCI anticancer screen, dose series, 48 h

Row | SMILES | GI50 [µM] | TGI [µM]
51 | COC(=O)[C@]12CC[C@@H](C)[C@H](C)[C@@H]1C1=CC[C@@H]3[C@@]4(C)C/C(=N\O)[C@H](O)[C@@]5(C)COC(=C45)C[C@@]3(C)[C@]1(C)CC2 | 4.6 | 17
52 | Oc1c(CN2CCC(N3CCCCC3)CC2)cc(Cc2cc(CN3CCC(N4CCCCC4)CC3)c(O)c3ncccc23)c2cccnc12 | 0.62 | 2.89
53 | Cn1c2ccccc2c2c(-c3ccccc3)[n+]3ccncc3nc21 | > 100 | > 100
54 | C[C@@H]1OC(O)[C@@H](F)[C@H](O)[C@@H]1O (some centres not stated) | > 100 | > 100
55 | COc1ccc(-c2cnnc3c(-c4cccc(C(F)(F)F)c4)cnn23)cc1 | > 100 | > 100
56 | NC(=O)c1ccc(I)c(N)c1 | > 100 | > 100
57 | C=CCCCCCCCCC(=O)[O][Sn]([CH2]CCC)([CH2]CCC)[CH2]CCC | 0.138 | 0.278
58 | CC/C(=C(/c1ccc(O)cc1)c1ccc(OCCNC)cc1)c1ccccc1 | 1.75 | 3.17
59 | O=C(/C(Br)=C/c1ccccc1)c1ccccc1 | 0.433 | 1.59
60 | O=C1CCCCN1CCCCC#Cc1ccccc1C#Cc1ccc([N+](=O)[O-])cc1 | 2.79 | 8.87
61 | CCOc1cc2c(Cl)ncnc2c(OCC)c1OCC | 3.39 | 10
62 | Oc1ccc2ccccc2c1N=Nc1nccs1 | 0.328 | 17.5
